Active and inactive are the calls of the source. How the calls were made is not given here.
Target: MCHR1
Assay: MCHR1 antagonist potency, late-stage follow-up, selectivity assay for GPR7 antagonist project, cell-based, fluorescence, dose response, set 2 (AID 504889)
Conditions: MCHR1-expressing cells, antagonist mode

| IC50 (run 1) | IC50 (run 2) | IC50 (run 3) [µM] | SMILES |
| --- | --- | --- | --- |
| inactive | inactive |  | COc1ccc(Oc2c(Br)cnn(-c3ccc(C)cc3)c2=O)cc1 |
| 9.81 µM | 8.05 µM |  | COc1ccc(Oc2c(C)cnn(-c3ccc(C(C)C)cc3)c2=O)cc1 |
| inactive | > 20 µM (inactive) |  | COc1ccc(Oc2c(-c3ccccc3)cnn(-c3ccc(C)cc3)c2=O)cc1 |
| 5.39 µM | 6.79 µM |  | COc1ccc(Oc2c(Cl)cnn(-c3cccc(C)c3)c2=O)cc1 |
| 7.47 µM | 7.6 µM |  | COc1ccc(Oc2c(C#N)cnn(-c3ccc(C(C)C)cc3)c2=O)cc1 |
| inactive | 8.62 µM |  | CCOc1ccc(Oc2c(Cl)cnn(-c3ccc(C)cc3)c2=O)cc1 |
| 5.51 µM | 8.4 µM |  | Cc1ccc(-n2ncc(Cl)c(Oc3ccc(C(F)(F)F)cc3)c2=O)cc1 |
| 2.9 µM | 4.98 µM |  | Cc1ccc(-n2ncc(Cl)c(Oc3ccc(OC(F)(F)F)cc3)c2=O)cc1 |
| inactive | inactive |  | COc1ccc(Oc2c(Cl)cnn(-c3ccc(C)cc3)c2=O)cc1 |
| inactive | > 20 µM (inactive) |  | COc1ccc(Oc2c(-c3ccco3)cnn(-c3ccc(C)cc3)c2=O)cc1 |
| 2.17 µM | 4.71 µM |  | CCC(C)c1ccc(-n2ncc(Cl)c(Oc3ccc(OC)cc3)c2=O)cc1 (centres undefined) |
| 3.92 µM | inactive |  | CCc1ccc(-n2ncc(Cl)c(Oc3ccc(OC)cc3)c2=O)cc1 |
| 8.39 µM | 4.46 µM |  | COc1ccc(Oc2c(Cl)cnn(-c3cccc4ccccc34)c2=O)cc1 |
| > 20 µM (inactive) | > 20 µM (inactive) |  | COc1ccc(Oc2c(-c3cccs3)cnn(-c3ccc(C)cc3)c2=O)cc1 |
| 6.89 µM | 4.95 µM |  | COC(=O)c1cnn(-c2ccc(C(C)C)cc2)c(=O)c1Oc1ccc(OC)cc1 |
| 2.7 µM | 8.99 µM |  | COc1ccc(Oc2c(Cl)cnn(-c3ccc(C(C)(C)C)cc3)c2=O)cc1 |
| 4.78 µM | 5.15 µM |  | COc1ccc(Oc2c(C=O)cnn(-c3ccc(C(C)C)cc3)c2=O)cc1 |
| > 20 µM (inactive) | > 20 µM (inactive) |  | Cc1ccc(-n2ncc(Cl)c(Oc3ccc(CO)cc3)c2=O)cc1 |
| 5.02 µM | 3.09 µM |  | CCc1ccc(Oc2c(Cl)cnn(-c3ccc(C)cc3)c2=O)cc1 |
| 1.96 µM | 1.71 µM |  | COc1ccc(Oc2c(Cl)cnn(-c3ccc(C(C)C)c(C)c3)c2=O)cc1 |
| 1.72 µM | 2.37 µM |  | COc1ccc(Oc2c(Cl)cnn(-c3cccc(C(C)C)c3)c2=O)cc1 |
| 3.1 µM | 4.3 µM |  | COc1ccc(Oc2c(Cl)cnn(-c3ccc(C(C)C)cc3)c2=O)cc1 |
| 5.41 µM | inactive |  | COc1ccc(Oc2c(C3CC3)cnn(-c3ccc(C)cc3)c2=O)cc1 |
| 3.94 µM | 5.04 µM | 2.68 | COc1ccc(Oc2c(Cl)cnn(-c3cc(C)cc(C)c3)c2=O)cc1 |
